Entries after “also recorded” stand apart in the source; their conditions may differ.

One data set relates to conscious rats. Kind of data set: Gastric emptying and gastrointestinal transit in conscious rats (barium sulfate test meal). The data set is classed as in vivo, rat. The note with it: Wistar rats, p.o. 30 min before test meal; for gastric emptying compared to negative control / intestinal transit compared to negative control: all tested doses up to the 30-fold ED50 dose. How it is done: In order to evaluate whether the compounds of the present invention lead to gastrointestinal side effects the compounds of the invention have been administered to rats 30 minutes before the rats were fed with a test meal comprising barium sulfate. After that it was tested whether gastric emptying and/or gastrointestinal transit in these rats was affected by the presence of these compounds.
The effects of the compounds Example 1 and Example 2 on gastric emptying and gastrointestinal transit in conscious rats has been investigated as described below.
Wistar rats of both sexes weighing 130-160 g (ages: male 7 wk, female 8 wk) were used. The animals are obtained from an approved local distributor, a minimum of four days quarantine is required before use, during which time the animals are maintained under routine animal care procedures. Groups of up to 5 animals are housed in cages in a room with controlled temperature and humidity and a light/dark cycle with the lights on from 6 a.m. to 6 p.m. The animals have access to normal rodent chow and water ad libitum. The animals are transported to the laboratory on the day of experimentation.
Gastric emptying as well as small intestinal propulsion are determined using a barium sulfate test meal.
Five rats Crl:WI(Han) of each sex (n=10) were used. The animals were deprived of food 17 h prior to the experiment but allowed free access to water. The drug under investigation (drug was suspended to the concentration of 10 ml/kg body weight in 0.5% Natrosol solution) or the negative control (vehicle alone was given 10 ml/kg body weight) was administered 30 min. (p.o.) before the test meal at doses calculated to be 3-fold, 10-fold or 30-fold the ED50 found in efficacy studies in the rat.
The test meal (suspension of 7.5 g barium sulfate in 10 ml salt-free water) is given orally by gavage at a dose of 2 ml/100 g body weight. Thirty minutes after the administration of the test meal the animals were killed in deep isoflurane anaesthesia by cervical dislocation. The stomach and the intestine were then exposed by laparatomy and removed.
The removed stomach was weighed, then incised, the contents removed and the empty stomach is weighed again.
The length of gut traversed with barium sulfate in relation to the whole length of the gut is determined by direct measurements using a ruler.
The gastric content was calculated from the weight difference between the filled and empty stomach and normalized to 100 g body weight. Thus, an increase in weight difference indicated an impaired gastric emptying, whereas a decrease in weight difference indicated an enhanced gastric emptying.
The length of gut traversed with barium sulphate (as judged by visual inspection) in relation to the whole length of the gut (from the pylorus to the rectum) is determined by direct measurements using a ruler.
Intestinal transit is calculated as the percentage movement of barium sulphate in the intestine in relation to the whole length of the gut. Consequently an increased intestinal transit length indicated an accelerated intestinal transit whereas a decreased intestinal transit length indicated decelerated intestinal transit.
Data are expressed as mean±standard deviation (SD). For each dose, comparisons were performed using an analysis of variance (ANOVA) and a post hoc Dunnett test to compare the various groups to the controls when the ANOVA was significant. p<0.05 was considered significant.

Data set [1] has as its system LPS-induced neutrophil influx into bronchoalveolar lavage fluid of male Wistar rats. Kind of data set: LPS-induced lung inflammation model: inhibition of LPS-induced neutrophil influx into bronchoalveolar lavage fluid. The data set is classed as in vivo, rat. The note with it: oral by gavage, BALF 4 hours after end of LPS exposure. How it is done:
The anti-inflammatory activity of Examples 1 and 2 and of Prior art compounds A and D was assessed in an in vivo LPS-induced lung inflammation model in rats.
As a measure of the pharmacological potency of the above mentioned compounds the half-maximal effective dose (ED50) in regard to the inhibition of lipopolysaccharide-induced (LPS-induced) neutrophil influx into the bronchoalveolar lavage fluid (BALF) was determined by assessing the dose response relationship. Bacterial endotoxins (lipopolysaccharides [LPS]) are components of the outer bacterial cell membrane which play an important role in the pathogenesis of infections with gram-negative bacteria. It is known that inhalation of such aerosolized LPS induces a dose-dependent increase in neutrophils to lung tissues and airspaces in rats which may be detected by analyzing the amount of neutrophils in the bronchoalveolar lavage fluid (BALF). […]
Determination of neutrophil content of the BALF was performed using an ADVIA 120 blood hemacytometer (Bayer Diagnostics). Neutrophil data were normalised (Positive Control (=LPS treatment alone)=100%, Negative Control (no LPS treatment, administration of “vehicle only”)=0%) and expressed as percent of LPS control. The ED50 was calculated using a nonlinear fit (with the Graph Pad Prism software and a sigmoidal dose response fit). […]

Regarding `[O-][S+]1CCc2nc(N3CCC(c4ncc(Cl)cn4)CC3)nc(NC3(CO)CCC3)c21` (single isomer, unassigned) [Example 2], in the data set on conscious rats, the “gastric emptying compared to negative control” value was “neither showed a substantially enhanced or impaired gastric emptying; also recorded: no relevant differences” and the “intestinal transit compared to negative control” value was “no relevant differences”.
In the case of `[O-][S+]1CCc2nc(N3CCC(c4ccc(Cl)cc4)CC3)nc(NC3(CO)CCC3)c21` (single isomer, unassigned) [Example 1], the “gastric emptying (weight difference per body weight) compared to negative control” value in the data set with conscious rats (3-fold ED50 dose) is “no relevant differences”; in the data set on conscious rats (10-fold ED50 dose), “no relevant differences”; with conscious rats (30-fold ED50 dose), “only a very moderate enhancement of the weight difference per body weight”. For the same molecule, in the data set with conscious rats, the “gastric emptying compared to negative control” value was “neither showed a substantially enhanced or impaired gastric emptying”. Moreover, the “intestinal transit compared to negative control” value in the data set on conscious rats is given as “no significant differences”.
For `[O-][S+]1CCc2nc(N3CCC(c4cccc(Cl)c4)CC3)nc(NC3(CO)CC3)c21` (stereo not drawn) [Prior art compound D], the “ED50 (inhibition of LPS-induced neutrophil influx into BALF)” value in data set [1] came out at 6.66 mg/kg body weight.
On the same count and under the same terms, the figure for `[O-][S+]1CCc2nc(N3CCC(c4ccc(Cl)cc4)CC3)nc(NC3(CO)CC3)c21` (stereo not drawn) [Prior art compound A] is 1.13 mg/kg body weight.
